Measurements taken from ChEMBL document CHEMBL5512664, “Emerging and Re-emerging Warheads for Targeted Covalent Inhibitors: An Update” (J Med Chem, 2024).

Legend:
[1] = molecular target: T1, Peptidyl-prolyl cis-trans isomerase E (Homo sapiens, UniProt Q9UNP9); experiment: Inhibition of CypE (unknown origin) assessed as apparent inhibition constant incubated for 24 hrs by Competition anisotropy binding assay; conditions: read-out: Ki(app)
[2] = molecular target: T1, Peptidyl-prolyl cis-trans isomerase E; experiment: Inhibition of CypE (unknown origin) expressed in Escherichia coli BL21(DE3) by FLIPR based Chymotrypsin coupled prolyl-isomerase assay
[3] = Stability of the compound in human plasma assessed as half life; assay type: ADME, cell-free
[4] = molecular target: Induced myeloid leukemia cell differentiation protein Mcl-1 (Homo sapiens, UniProt Q07820); experiment: Irreversible inhibition of MCL-1 (unknown origin) measured after 8 hrs
Sequence of Induced myeloid leukemia cell differentiation protein Mcl-1 (Q07820 whole entry): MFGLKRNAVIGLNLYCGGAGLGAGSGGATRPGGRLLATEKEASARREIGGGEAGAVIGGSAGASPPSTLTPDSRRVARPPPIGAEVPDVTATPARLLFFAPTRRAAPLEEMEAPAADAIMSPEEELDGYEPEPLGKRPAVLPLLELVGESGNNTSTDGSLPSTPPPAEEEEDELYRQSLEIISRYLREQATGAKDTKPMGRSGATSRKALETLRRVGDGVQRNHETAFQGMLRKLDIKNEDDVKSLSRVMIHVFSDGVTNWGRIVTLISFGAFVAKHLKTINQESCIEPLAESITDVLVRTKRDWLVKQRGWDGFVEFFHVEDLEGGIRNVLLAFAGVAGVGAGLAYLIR

Pyruvate kinase PKLR = Pyruvate kinase PKLR (Homo sapiens, UniProt P30613); experiment: Allosteric activation at human liver pyruvate kinase
Sequence of Pyruvate kinase PKLR (P30613 whole entry): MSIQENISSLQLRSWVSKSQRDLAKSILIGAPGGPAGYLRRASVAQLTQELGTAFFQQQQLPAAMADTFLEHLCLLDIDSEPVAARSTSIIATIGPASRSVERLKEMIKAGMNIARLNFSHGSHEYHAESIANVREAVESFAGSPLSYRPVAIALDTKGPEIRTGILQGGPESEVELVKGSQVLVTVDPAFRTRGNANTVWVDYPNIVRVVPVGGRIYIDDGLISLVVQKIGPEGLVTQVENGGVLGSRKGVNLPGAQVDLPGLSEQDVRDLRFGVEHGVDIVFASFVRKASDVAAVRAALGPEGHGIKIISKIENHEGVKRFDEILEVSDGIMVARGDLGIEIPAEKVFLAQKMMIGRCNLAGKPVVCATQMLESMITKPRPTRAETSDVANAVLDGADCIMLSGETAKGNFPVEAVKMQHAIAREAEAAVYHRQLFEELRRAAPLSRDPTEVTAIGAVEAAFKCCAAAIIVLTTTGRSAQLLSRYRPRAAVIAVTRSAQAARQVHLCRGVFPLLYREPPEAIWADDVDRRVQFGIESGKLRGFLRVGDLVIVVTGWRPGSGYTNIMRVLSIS

[5] = molecular target: Signal peptidase I (Escherichia coli K-12) (UniProt P00803); experiment: Inhibition of Escherichia coli type I signal peptidase LepB assessed as reaction rate Kinact/Ki ratio
Sequence of Signal peptidase I (Escherichia coli K-12) (P00803 whole entry): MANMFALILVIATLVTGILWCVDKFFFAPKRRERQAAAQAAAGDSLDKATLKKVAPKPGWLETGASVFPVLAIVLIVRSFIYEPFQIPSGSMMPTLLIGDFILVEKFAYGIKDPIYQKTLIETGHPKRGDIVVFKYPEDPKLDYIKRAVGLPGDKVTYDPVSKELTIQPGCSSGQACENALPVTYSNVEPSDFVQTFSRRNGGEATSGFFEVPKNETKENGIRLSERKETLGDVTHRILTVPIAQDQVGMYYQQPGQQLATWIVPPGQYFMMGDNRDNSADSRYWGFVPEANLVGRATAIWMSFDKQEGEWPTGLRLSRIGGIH

Signal peptidase I = Signal peptidase I (Escherichia coli K-12, UniProt P00803); experiment: Binding affinity to Escherichia coli type I signal peptidase LepB assessed as inhibition constant
Sequence of Signal peptidase I (P00803 whole entry): as above

[6] = molecular target: Signal peptidase I (Escherichia coli K-12) (UniProt P00803); experiment: Irreversible inhibition of Escherichia coli type I signal peptidase LepB assessed as inactivation rate constant (Kinact)
[7] = molecular target: Replicase polyprotein 1ab (Severe acute respiratory syndrome coronavirus 2, UniProt P0DTD1); experiment: Inhibition of SARS-CoV-2 Main protease (Mpro) by FRET assay
[8] = molecular target: Eukaryotic translation initiation factor 4E (Homo sapiens) (UniProt P06730); experiment: Inhibition of eIF4E (unknown origin) assessed as inactivation rate constant (Kinact)
Sequence of Eukaryotic translation initiation factor 4E (Homo sapiens) (P06730 whole entry): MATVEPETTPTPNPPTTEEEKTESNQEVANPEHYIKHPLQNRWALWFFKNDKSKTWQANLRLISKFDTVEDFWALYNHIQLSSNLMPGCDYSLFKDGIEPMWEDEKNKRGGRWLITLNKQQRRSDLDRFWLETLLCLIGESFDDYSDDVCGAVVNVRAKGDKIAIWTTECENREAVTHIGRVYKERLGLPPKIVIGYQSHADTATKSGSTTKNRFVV

[9] = molecular target: Eukaryotic translation initiation factor 4E (Homo sapiens) (UniProt P06730); experiment: Inhibition of eIF4E (unknown origin) assessed as reaction rate Kinact/Ki ratio
[10] = GSH reactivity in PBS buffer at pH 7.5 assessed as half life at 500 uM by LC-MS analysis; assay type: ADME
[11] = Stability of the compound in pH 7.5 PBS assessed as hydrolysis by measuring half life at 500 uM by LC-MS analysis; assay type: physicochemical; conditions: PBS pH 7.5, pH 7.5
[12] = Inhibition of staphylococcus aureus Sortase A assessed as fluorescence polarization using reporter peptide W7-F incubated for 30 mins by competition assay
[13] = Metabolic stability in human hepatocytes assessed as half life; assay type: ADME, cell-based, Hepatocyte
[14] = Metabolic stability in human liver microsomes assessed as half life; assay type: ADME, Microsome

T1 sequence (Q9UNP9 whole entry): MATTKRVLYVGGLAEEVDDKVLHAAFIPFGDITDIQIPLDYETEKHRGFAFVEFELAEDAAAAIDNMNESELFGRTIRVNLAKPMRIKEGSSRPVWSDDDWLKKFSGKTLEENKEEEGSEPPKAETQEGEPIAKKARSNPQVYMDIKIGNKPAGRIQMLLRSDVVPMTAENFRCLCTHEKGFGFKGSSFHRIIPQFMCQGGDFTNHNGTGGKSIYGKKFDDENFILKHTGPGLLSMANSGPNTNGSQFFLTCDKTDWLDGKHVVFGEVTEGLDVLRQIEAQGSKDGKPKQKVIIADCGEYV

## NCCOCCNC(=O)[C@@H]1CCNC(=O)/C=C/C(=O)N2CCC[C@](Cc3ccccc3)(C2)C(=O)N[C@@H](Cc2ccc(-c3ccccc3)cc2)C(=O)NCc2ccccc2CC(=O)N1
[1]
  Ki: 72 nM
[2]
  IC50: 13 nM

## O=C1CCC(N2Cc3ccc(S(=O)(=O)n4cncn4)cc3C2=O)C(=O)N1 (stereo unspecified)
[3]
  half-life: < 1 min

## C#Cc1ccc(OCc2nn(C)c(C)c2-c2cccc3c(CCCOc4cccc5ccccc45)c(C(=O)O)[nH]c23)cc1C=O
[4]
  IC50: 26.8 nM

## COC(=O)c1ccccc1SC1=NS(=O)(=O)c2ccccc21
Pyruvate kinase PKLR
  EC50: 290 nM

## Cc1nc(-c2ccc(C(C)(C)C)cc2)ncc1C(=O)N[C@@H](CCN)C(=O)N(C)[C@@H]1C(=O)N[C@@H](C)C(=O)N[C@H](C(=O)NCC#N)Cc2ccc(OCCN)c(c2)-c2cc1ccc2OCCN
[5]
  Ratio: 1.6 10^6/M/s
Signal peptidase I
  Ki: 0.44 nM
[6]
  Kinact: 7 10^-4/s

## O=C[C@H](CC1CCNC1=O)NC(=O)[C@H](Cc1cccc(F)c1)NC(=O)c1cc2ccccc2[nH]1 (stereo partly specified)
[7]
  IC50: 40 nM

## CNc1nc2ccc(N(Cc3ccnc(Cl)c3)S(=O)(=O)c3cccc(S(=O)(=O)F)c3)cc2c(=O)[nH]1
[8]
  Kinact: 2 10^-2/s
[9]
  Ratio: 5.5 10^3/M/s
[10]
  half-life at 500 µM: 2.7 min
[11]
  half-life at 500 µM: 30 min

## O=Cc1ccccc1NCc1ccccc1B(O)O
[12]
  IC50: 1300 nM

## O=C1CCC(N2Cc3ccc(OS(=O)(=O)F)cc3C2=O)C(=O)N1 (stereo unspecified)
[13]
  half-life: > 217 min
[14]
  half-life: > 145 min
